How the values were obtained:
E. coli = assay: pH change of sample effluent after exposure of E. coli to anti-infective (ISFET sensor system, FIG. 9); format: cell-based; conditions: for concentration of anti-infective to which the E. coli is resistant (change in pH): E. coli from fluid sample, pH of sample effluent 60 minutes after exposure
From the text: FIG. 9 illustrates experimental results of experiments conducted using the methods and system 100 described herein. The graphs in FIG. 9 show a change in the solution characteristic 136 of the measured liquid 402, such as the sample effluent 134, monitored by the system 100 at a specific point in time. In this case, the graphs in FIG. 9 show the change in the solution characteristic 136 of the measured liquid 402 sixty (60) minutes after an anti-infective 104 is introduced to the filter 110, the substrate wells 200, or a combination thereof comprising the infectious agent 102.
In this example, E. coli can be one of the infectious agents 102 present in the fluid sample 124 applied or introduced to the system 100. […] An insignificant change in the solution characteristic 136 can be a change below a statistically significant percentage or threshold value.

[1] = system: Staphylococcus saprophyticus; assay: pH change of sample effluent after exposure of Staphylococcus saprophyticus to anti-infective (ISFET sensor system, FIG. 10); format: cell-based; conditions: Staphylococcus saprophyticus from fluid sample; pH of sample effluent 60 minutes after exposure
From the text: In these examples, Staphylococcus saprophyticus can be one of the infectious agents 102 present in the fluid sample 124 applied or introduced to the system 100.

Compound	concentration of anti-infective to which the E. coli is resistant (change in pH) (E. coli)	MIC (E. coli; Escherichia coli, 1 h, read-out: minimal inhibitory concentration (MIC))	concentration of anti-infective at which the Staphylococcus saprophyticus is susceptible [1]	concentration of anti-infective to which the Staphylococcus saprophyticus is resistant (change in pH) [1]
O=C1CN(/N=C/c2ccc([N+](=O)[O-])o2)C(=O)N1 [nitrofurantoin]	approximately 1 μg/ml	1 µg/mL	higher than 1 μg/ml	approximately 1 μg/ml
O=C(O)c1cn(C2CC2)c2cc(N3CCNCC3)c(F)cc2c1=O [ciprofloxacin]	approximately 0.1 μg/ml	–	–	–
CC1(C)S[C@@H]2[C@H](NC(=O)[C@H](N)c3ccccc3)C(=O)N2[C@H]1C(=O)O [ampicillin]	–	–	–	up to 50 μg/ml

Reference: patent US9944969B2, “Devices, systems and methods for detecting viable infectious agents in a fluid sample” (eSense, LLC, priority 2015, dated 2018)
